Several values for one entry are separate records, joined by “and”; a condition that tells them apart may be missing. Equal values may be shown once. Entries after “also recorded” stand apart in the source; their conditions may differ.
Tests used:
[1] = system: cytochrome P450 (CYP) isoenzymes 1A1/2 and 2B1/2; assay: Induction of cytochrome P450 isoenzymes in rats; details: female rats but not males
dogs = assay: 1-year (chronic oral) dog toxicity study
[2] = 1-year (chronic oral) dog toxicity study; details: dog, in vivo, oral, 15 mg/kg/day
[3] = target: human ether-a-go-go related gene (hERG) receptor (Homo sapiens, UniProt Q12809); assay: hERG interaction (safety pharmacology); details: measured concentration of 70 nM (n=2)
[4] = system: children and adolescents with fragile X syndrome; details: in those with higher baseline anxiety; Ligsay et al, 2017; cited from earlier work
[5] = Tissue distribution of [14C]-ganaxolone; details: mouse, rat, brain
[6] = system: BTBR mouse model of autism; details: Kazdoba et al, 2016; cited from earlier work
[7] = system: women with postpartum depression; assay: Phase 2A study Cohort 6: efficacy (HAM-D17, CGI-I, EPDS, STAI6) versus placebo; type: in vivo, human; details: for Placebo-adjusted difference, HAM-D17 (LS Mean), early efficacy / Placebo-adjusted difference, HAM-D17 (LS Mean), late efficacy: Cohort 6: IV 20 mg/hr for 6 h then 900 mg orally for 28 days; for Placebo-adjusted difference, HAM-D17 (LS Mean), late efficacy: Day 29
Method: Approximately 10-30 subjects are randomized into each cohort.
(§1) The primary efficacy endpoint is HAM-D17 total score change from baseline to 60 hours post-infusion (on Day 3) for Cohorts 1-3 and to Day 29 for Cohort 6. The primary analysis in each cohort is done using the mITT set. Although the trial is not powered for inferential analysis and there is no consideration for control of type 1 error across multiple cohorts, a clinically meaningful numeric difference in means of 3-4 points, based on mITT analysis, between ganaxalone and placebo treatment groups is considered an indication of acceptable efficacy and is be the most influential outcome in the overall assessment of the efficacy of ganaxolone in treating PPD.
The trial also evaluates the following secondary endpoints at each post-baseline data collection time point to provide additional evidence of the efficacy of ganaxolone in treating PPD: • Change from baseline in HAM-D17 total score other than at 60 hours post-infusion (on Day 3) for Cohorts 1-3 and to Day 29 for Cohort 6 • Change from baseline in EPDS total score • Change from baseline in STAI6 • CGI-I. Exploratory Endpoints

[8] = system: women with postpartum depression; assay: Mean change in HAM-D score, ganaxolone versus placebo treatment groups; type: in vivo, human; details: worded as 'in certain embodiments'
From the text: The Hamilton Depression Rating Scale (HAM-D) is a commonly-used semi-structured clinician-rated instrument which assesses the range of symptoms that are most frequently observed in subjects with major depression. HAM-D has undergone a considerable amount of psychometric study and is accepted as a valid standard of symptom outcome assessment in studies of major depression. In the examples disclosed herein HAM-D was scored using the original 17-item HAM-D scale (HAM-D17).
Administration of ganaxolone in accordance with the methods of the present invention may provide a mean change in HAM-D score (i.e., least-squares (LS) mean reduction) at about 6 hours and/or at about 12 hours and/or about 24 hours (about 1 day) and/or about 48 hours (about 2 days) and/or about 60 hours (about 2.5 days) and/or about 72 hours (about 3 days) and/or about 11 days and/or about 30 days and/or about 34 days of from about 2 to about 17. In the preferred embodiments, the mean change in HAM-D score is greater than placebo.
as §1

[9] = human plasma following oral administration; cited from earlier work
female rats = assay: Pulmonary safety pharmacology in female rats; type: in vivo, rat; details: doses up to 40 mg/kg
Method: Safety pharmacology studies were conducted with ganaxolone.

rats or mice = assay: Reproductive and developmental toxicity
[10] = In vitro haemolysis / human plasma compatibility
[11] = system: mouse model of posttraumatic stress disorder (PTSD); details: Pinna and Rasmussen, 2014; cited from earlier work
[12] = system: women with postpartum depression; assay: Phase 2A study: safety and tolerability (adverse events); type: in vivo, human
rats = assay: IV toxicity in rats, 14 days; details: continuous IV dosing for 14 days
[13] = IV toxicity in rats, 14 days; details: rat, in vivo, iv

human ether-a-go-go related gene (hERG) receptor, sequence (Q12809 whole entry): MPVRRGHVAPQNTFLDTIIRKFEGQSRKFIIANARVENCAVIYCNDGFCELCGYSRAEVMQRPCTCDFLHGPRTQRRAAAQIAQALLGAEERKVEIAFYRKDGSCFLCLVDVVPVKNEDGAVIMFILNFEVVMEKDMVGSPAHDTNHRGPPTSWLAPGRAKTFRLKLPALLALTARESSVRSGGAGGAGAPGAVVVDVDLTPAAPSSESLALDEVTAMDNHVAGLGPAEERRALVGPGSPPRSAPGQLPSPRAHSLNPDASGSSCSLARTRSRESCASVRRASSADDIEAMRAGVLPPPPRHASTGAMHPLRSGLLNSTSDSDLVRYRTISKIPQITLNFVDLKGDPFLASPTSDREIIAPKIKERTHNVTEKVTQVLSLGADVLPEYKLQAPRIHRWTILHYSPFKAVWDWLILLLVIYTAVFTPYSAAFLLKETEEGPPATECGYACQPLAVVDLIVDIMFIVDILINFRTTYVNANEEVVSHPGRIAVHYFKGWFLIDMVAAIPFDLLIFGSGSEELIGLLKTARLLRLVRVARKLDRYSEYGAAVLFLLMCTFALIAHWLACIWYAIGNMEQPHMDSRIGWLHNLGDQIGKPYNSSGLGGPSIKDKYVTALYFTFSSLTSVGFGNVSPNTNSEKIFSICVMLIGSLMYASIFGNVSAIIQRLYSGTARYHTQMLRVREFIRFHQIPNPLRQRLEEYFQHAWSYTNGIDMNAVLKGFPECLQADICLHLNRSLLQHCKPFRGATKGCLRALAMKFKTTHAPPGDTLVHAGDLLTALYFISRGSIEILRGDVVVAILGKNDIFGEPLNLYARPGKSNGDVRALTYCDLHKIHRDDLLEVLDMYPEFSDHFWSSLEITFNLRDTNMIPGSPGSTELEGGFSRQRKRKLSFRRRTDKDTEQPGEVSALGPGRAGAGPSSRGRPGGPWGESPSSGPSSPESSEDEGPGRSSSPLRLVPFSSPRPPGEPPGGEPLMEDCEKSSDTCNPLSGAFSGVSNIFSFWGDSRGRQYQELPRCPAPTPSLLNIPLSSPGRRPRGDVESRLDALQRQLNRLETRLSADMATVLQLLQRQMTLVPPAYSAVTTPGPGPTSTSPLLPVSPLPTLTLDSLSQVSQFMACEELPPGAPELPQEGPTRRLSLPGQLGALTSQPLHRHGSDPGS

## CC(=O)[C@H]1CC[C@H]2[C@@H]3CC[C@H]4C[C@](C)(O)CC[C@]4(C)[C@H]3CC[C@]12C [ganaxolone, 3α-hydroxy-3β-methyl-5α-pregnan-20-one]
[1]
  Induction of CYP isoenzymes 1A1/2 and 2B1/2: induces
dogs; 10 and 15 mg/kg/day
  Findings associated with mean Cmax greater than 1500 ng/mL: increased weight and total plasma cholesterol levels
dogs; after 3 months of dosing, in 4 animals (>190 bpm)
  ECG / heart rate finding: transient sinus tachycardia
[2]
  Cmax: > 1500 ng/mL
[3]
  Interaction with hERG receptor: did not interact
[4]
  Anxiety, hyperactivity and attention: reduced anxiety and hyperactivity and improved attention
[5]
  Kp: ~5
[6]
  Sociability: improved sociability
[7]; Cohort 6
  EPDS and STAI6 versus placebo: numeric advantage at all timepoints till Day 29
[7]; PP, 6 hours
  Placebo-adjusted difference, HAM-D17 (LS Mean), early efficacy: −3.4
[7]; PP, Day 2
  Placebo-adjusted difference, HAM-D17 (LS Mean), early efficacy: −2.7
[7]; PP
  Placebo-adjusted difference, HAM-D17 (LS Mean), late efficacy: −2.6
[7]; mITT, 6 hours
  Placebo-adjusted difference, HAM-D17 (LS Mean), early efficacy: −2.8
[7]; mITT, Day 2
  Placebo-adjusted difference, HAM-D17 (LS Mean), early efficacy: −2.6
[7]; mITT
  Placebo-adjusted difference, HAM-D17 (LS Mean), late efficacy: +1
[7]; Cohort 6, after Day 2
  HAMD17 change from baseline, PP analysis and sensitivity by site analyses: favors GNX
[7]; Cohort 6, at 6 hours and on Day2, both mITT, PP
  HAMD17 decrease versus placebo: favor ganaxolone
[7]; Cohort 6, both mITT, PP, early timepoint
  CGI-I decrease versus placebo: favors GNX
[7]; Cohort 6, mITT
  HAMD17 mITT analysis at late and intermediate timepoints during oral treatment: not different from placebo
[7]; Cohort 6, mITT and PP, Day 2, Day 8, Day 15, Day 29 (p<0.05)
  CGI-I versus placebo: favors GNX at all timepoints
[8]; 12 hours
  Difference between ganaxolone and placebo treatment groups in mean change in HAM-D score: 0.7
[8]; 24 hours
  Difference between ganaxolone and placebo treatment groups in mean change in HAM-D score: 1.5
[8]; 48 hours
  Difference between ganaxolone and placebo treatment groups in mean change in HAM-D score: 5.6
[8]; 60 hours
  Difference between ganaxolone and placebo treatment groups in mean change in HAM-D score: 4.2
[8]; 72 hours
  Difference between ganaxolone and placebo treatment groups in mean change in HAM-D score: 2.9
[8]; 11 days
  Difference between ganaxolone and placebo treatment groups in mean change in HAM-D score: 5.9
[8]; 34 days
  Difference between ganaxolone and placebo treatment groups in mean change in HAM-D score: 4.1
Mutagenicity
  Mutagenicity: No potential for mutagenicity was detected
[9]
  Half-life: approximately 20 hours
Female rats
  Pulmonary effects: No pulmonary effects were observed
Rats or mice; rats
  Fertility and early embryonic development: no effects on fertility and early embryonic development
Rats or mice; rats or mice
  Teratogenicity: not teratogenic
[10]
  Haemolysis: did not cause haemolysis; also recorded: did not cause hemolysis
[11]
  Aggression and social isolation-induced anxiety-like behaviour: decreased aggression and social isolation-induced anxiety-like behaviour
[12]; Cohort 1: IV 4 mg/hr for 48 h then 2 mg/hr for 12 h, 9 subjects
  Serious adverse events or adverse events leading to discontinuation: no serious adverse events or adverse events leading to discontinuation
[12]; Cohort 6
  DC for AE: 0 n (%)
  Incidence of dizziness: 25%
  Serious adverse events or adverse events leading to treatment discontinuation: no serious adverse events or adverse events leading to treatment discontinuation
  TEAE somnolence: 0 n (%)
[12]; Cohort 6: IV 20 mg/hr for 6 hours and 900 mg orally with dinner
  Incidence of somnolence and sedation: > 30% and 31.3%
[12]; Cohort 6, 900 mg orally with dinner, after Day 2
  Tolerability of oral administration: well tolerated
rats
  Clinical pathology parameters or histopathology: no ganaxolone-related changes
[13]; female
  NOAEL at 14 days: 30 mg/kg/day
[13]; male
  NOAEL at 14 days: 42 mg/kg/day

Source: patent US11266662B2, “Ganaxolone for use in prophylaxis and treatment of postpartum depression” (Marinus Pharmaceuticals, Inc., priority 2018, dated 2022)
